# According to patent publication US4241074A, “Prostaglandin analogues” (Beecham Group Limited, priority 1978, dated 1980):
# What was measured:
# [1] = system: broncho-constriction induced by an histamine aerosol; assay: protection of conscious guinea-pigs against broncho-constriction induced by an histamine aerosol (Herxheimer test); type: in vivo, guinea-pig
# Description: (b) The Compounds were also examined for their ability to protect conscious guinea-pigs against broncho-constriction induced by an histamine aerosol (Herxheimer test). The Compounds were administered by aerosol.
# The aerosol was produced in the following manner.
# Water soluble Compounds were dissolved in normal saline at a concentration of […]. Water insoluble Compounds were dissolved in ethanol at a concentration of 10 μg/ml. These solutions were then diluted to the test concentrations with normal saline.
# [2] = system: 5-hydroxytryptamine induced bronchoconstriction; assay: inhibition of 5-hydroxytryptamine induced bronchoconstriction in the anaesthetised, artificially respired guinea-pig (Konzett-Rossler preparation); type: in vivo; conditions: Cavia porcellus, iv, vs 5-hydroxytryptamine, read-out: Konzett-Rossler Test Ed50
# Description: (a) The Compounds were examined for their ability to inhibit 5-hydroxytryptamine induced bronchoconstriction in the anaesthetised, artificially respired guinea-pig (Konzett-Rossler preparation).
# [3] = system: indomethacin induced gastric ulceration; assay: inhibition of indomethacin induced gastric ulceration in the rat; type: in vivo
# Description: The compounds were examined for their ability to inhibit indomethacin induced gastric ulceration in the rat and the activities are shown in Table 2.
smiles,measurement,setting,value
"CC(=O)CCCCCCCC1C(=O)N(C)C(=O)N1CCC(C)(O)C1CCCCC1 (stereo not shown) [Compound 11, 1-(3'-hydroxy-3'-cyclohexyl-n-butyl)-3-methyl-5-(8""-oxo-n-nonyl) hydantoin]",% Increase in pre-convulsive coughing time at a dose of 10 μg/ml,[1]; after 2 mins.,140%
same,% Increase in pre-convulsive coughing time at a dose of 10 μg/ml,[1]; after 5 mins.,23%
same,ED50,[2],1 µg/kg
"CCCCCCC(C)(O)CCN1C(=O)N(C)C(=O)C1CCCCCCCC(C)=O (stereo not shown) [Compound 1, 1-(3'-hydroxy-3'-methyl-n-nonyl)-3-methyl-5-(8""-oxo-n-nonyl) hydantoin]",% Inhibition of Damage,[3]; 25 mg/kg p.o.,64%
same,% Inhibition of Damage,[3]; 50 mg/kg p.o.,74%
same,% Inhibition of Damage,[3]; 100 mg/kg p.o.,100%
same,ED50,[2],1.4 µg/kg
"CCCCCCC(C)(O)CCN1C(=O)N(C)C(=O)C1CC#CCCCCC(C)=O (stereo not shown) [Compound 6, 1-(3'-hydroxy-3'-methyl-n-nonyl)-3-methyl-5-(8""-oxo-non-2-ynyl) hydantoin]",% Increase in pre-convulsive coughing time at a dose of 10 μg/ml,[1]; after 2 mins.,29%
same,% Increase in pre-convulsive coughing time at a dose of 10 μg/ml,[1]; after 5 mins.,15%
"CCCCCCC(C)(O)CCN1CN(C)C(=O)C1CCCCCCCC(C)=O (stereo not shown) [Compound 3, 1-(3'-hydroxy-3'-methyl-n-nonyl)-3-methyl-5-(8""-oxo-n-nonyl)-4-imidazolidone]",% Inhibition of Damage,[3]; 100 mg/kg p.o.,65%
"CCCCCCC(C)(O)CCN1C(=O)NC(=O)C1CCCCCCCC(C)=O (stereo not shown) [Compound 8, 1-(3'-hydroxy-3'-methyl-n-nonyl)-5-(8""-oxo-n-nonyl) hydantoin]",% Increase in pre-convulsive coughing time at a dose of 10 μg/ml,[1]; after 2 mins.,81%
"CCCCCCC(C)(O)CCN1C(=S)N(C)C(=O)C1CCCCCCCC(C)=O (stereo not shown) [Compound 2, 1-(3'-hydroxy-3'-methyl-n-nonyl)-3-methyl-5-(8""-oxo-n-nonyl)-2-thiohydantoin]",% Inhibition of Damage,[3]; 100 mg/kg p.o.,100%
"CCCCCCC(C)(O)CCN1C(=O)N(C)C(=O)C1CCCCCCC(C)=O (stereo not shown) [Compound 9, 1-(3'-hydroxy-3'-methyl-n-nonyl)-3-methyl-5-(7""-oxo-n-octyl) hydantoin]",ED50,[2],67.5 µg/kg
